In paper PMC6201879, “N-substituted phenylbenzamides of the niclosamide chemotype attenuate obesity related changes in high fat diet fed mice” (PLoS ONE, 2018):
“And” between values parts separate entries of the source, which are not always exact repeats. Identical values can stand only once. Like-named read-outs stand apart in the source and are kept apart here.

Legend:
[1] = tested on: HEK293 cells stably transduced with the human OCT3 transporter; experiment: Cellular oxygen consumption rate (OCR), MitoXpress Xtra; format: cell-based; details: HEK293 cells expressing human OCT3
Procedure, shortened: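 HEK293 cells stably expressing human OCT3, treated with four compound concentrations; oxygen consumption followed by MitoXpress Xtra TR-F lifetime (340/650 nm) every 2 min for 2 h. Lifetime slope from the linear portion taken as OCR; FCCP (1 μM) as stimulated control, differences versus DMSO by t-test.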

[2] = Metabolic stability in mouse liver microsomes; format: in vitro ADME; details: for Remaining Percentage of 60 min (%), Mouse, Tested Sample: 0.5mg/ml microsomes and 1mM NADPH; for Remaining Percentage of 60 min (%), Mouse, Negative Control: 0.5mg/ml microsomes without NADPH; for Remaining Percentage of 60 min (%), Mouse, Heat-inactivated Control: heat inactivated microsomes without NADPH
Procedure, shortened: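 Microsomes at 0.5 mg/ml in 100 mM phosphate buffer with 5 mM MgCl2, run with 1 mM NADPH, without NADPH, and heat-inactivated without NADPH. Timed samples quenched in cold acetonitrile with internal standards; parent measured by LC/MS/MS (MRM), duplicates.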

[3] = Pharmacokinetic profile in Sprague Dawley rats (IV and PO); format: in vivo; details: Mean + SD (n = 3); for F (oral bioavailability) / bioavailability: PO 5 mg/kg vs IV 1 mg/kg; for half-life / Cmax / bioavailability: Sprague Dawley; for half-life / Cmax / bioavailability / C0 / AUC(0-inf) / AUC(0-t) / clearance / MRT inf / Tmax: rat, plasma; for bioavailability: read-out: F (oral bioavailability); for clearance: read-out: Cl_obs
Protocol: To evaluate the pharmacokinetic profile by oral (PO) and intravenous (IV) administration routes we used 6 to 8-week old Sprague Dawley rats weighing approximately 200-330g (n = 3 per study group). Compounds were administered at 1mg/kg in 5% Cremophor EL and 20% PEG400 in water for IV and 5mg/kg in PBS for PO. All dose formulation was performed at room temperature. Animals were fasted overnight prior to dosing and were re-fed approximately 4 hours after dosing. For PO, 0.2ml of blood was collected pre- and 0.5, 1, 2, 4 8 12 and 24-hours after drug delivery and transferred to EDTA-K2 BD Vacutainer plastic blood collection tubes. IV samples were collected pre-injection and 0.08, 0.25, 0.5, 1, 2, 4, 8, 12, 24-hours post injection. Blood samples were centrifuged at 2,000 g for 5 minutes at 4°C to obtain plasma. Plasma samples were stored at -75±15°C prior to analysis and then thawed and analyzed by LC-MS/MS method and pharmacokinetic calculations were performed using WinNolin (Phoenix, version 6.4). For IV administration: T1/2, C0, AUClast, AUCinf, MRT, Cl, Vss, and number of points for regression were determined. For PO administration: T1/2, Cmax, Tmax, AUCinf, AUClast, F(0-∞) %, and number of points for regression were determined. Data are reported as mean and standard deviation.

[4] = tested on: Salmonella typhimurium TA98; experiment: Ames assay, strain TA98; details: for Mean Revertant Colony Counts TA98 SP9+: with S9; for Mean Revertant Colony Counts TA98 S9-: without S9
[5] = tested on: Salmonella typhimurium TA100; details: for Mean Revertant Colony Counts TA-100 SP9+: with S9; for Mean Revertant Colony Counts TA-100 S9-: without S9; for fold increase in the mean number of revertant colonies, TA100: any concentration tested, vs negative control
[6] = iv, 1 mg/kg, IV 1 mg/kg, read-out: T 1/2 (IV) (converted)
[7] = po, 5 mg/kg, PO 5 mg/kg in PBS, read-out: T 1/2 (PO) (converted)
[8] = IV 1 mg/kg, read-out: AUC Inf (IV)
[9] = IV 1 mg/kg, read-out: AUC last (IV)
[10] = IV 1 mg/kg, read-out: MRT Inf_obs (IV)
[11] = PO 5 mg/kg in PBS, read-out: AUC Inf (PO)
[12] = PO 5 mg/kg in PBS, read-out: AUC last (PO)
[13] = PO 5 mg/kg in PBS, read-out: MRT Inf_obs (PO)

CC(C)(C)c1cc(C(=O)Nc2ccc(C(=O)O)cc2Cl)c(O)c(C(C)(C)C)c1 [Compound 600453, 3-Chloro-4-[(3,5-di-tert-butyl-2-hydroxybenzene)amido]benzoic acid]
concentration dependence of OCR change ([1]; four concentrations): significantly decreased OCR at all concentrations above 300nM
Remaining Percentage of 60 min (%), Mouse, Tested Sample [2]: 88.1%
Remaining Percentage of 60 min (%), Mouse, Negative Control [2]: 109.7%
stability in MLM ([2]; 60 minutes): stable
Remaining Percentage of 60 min (%), Mouse, Heat-inactivated Control [2]: 91.4%
AUC _%Extrap_obs (IV) ([3]; IV 1 mg/kg): 0.50 +/-0.114%
AUCl ast/D (IV) ([3]; IV 1 mg/kg): 5400 ± 683 ng·kg·h/mL/mg
V ss_obs ([3]; IV 1 mg/kg): 0.60 ± 0.076 L/kg
AUC _%Extrap_obs (PO) ([3]; PO 5 mg/kg in PBS): 2.22 +/- 1.36%
AUC last / D (PO) ([3]; PO 5 mg/kg in PBS): 3390 ± 551 ng·kg·h/mL/mg
T 1/2 (PO) ([3]; PO 5 mg/kg in PBS, 5 mg/kg): 3.91 ± 0.75 h
F (oral bioavailability) [3]: 63.91 +/- 10.5%
half-life [3, 6]: 3.68 ± 0.13 h
Cmax ([3]; po, 5 mg/kg, PO 5 mg/kg in PBS): 2050 ± 558 ng/mL
half-life [3, 7]: 3.9 h
bioavailability ([3]; po, 5 mg/kg): 64%
C0 ([3]; IV 1 mg/kg): 2816 ± 7.02 ng/mL
AUC(0-inf) [3, 8]: 5420 ± 689 ng·h/mL
AUC(0-t) [3, 9]: 5400 ± 683 ng·h/mL
clearance ([3]; IV 1 mg/kg): 3.11 ± 0.42 mL/min/kg
MRT inf [3, 10]: 3.22 ± 0.32 h
Tmax ([3]; PO 5 mg/kg in PBS): 4 h
AUC(0-inf) [3, 11]: 17300 ± 2850 ng·h/mL
AUC(0-t) [3, 12]: 16900 ± 2750 ng·h/mL
MRT inf [3, 13]: 7.4 ± 0.44 h
Mean Revertant Colony Counts TA98 SP9+ ([4]; 1.5 ug/Well): 5.0
Mean Revertant Colony Counts TA98 S9- ([4]; 1.5 ug/Well): 4.3
Mean Revertant Colony Counts TA98 SP9+ ([4]; 4 ug/Well): 8.3
Mean Revertant Colony Counts TA98 S9- ([4]; 4 ug/Well): 3.7
Mean Revertant Colony Counts TA98 SP9+ ([4]; 10 ug/Well): 7.7
Mean Revertant Colony Counts TA98 S9- ([4]; 10 ug/Well): 3.3
Mean Revertant Colony Counts TA98 SP9+ ([4]; 25 ug/Well): 6.3
Mean Revertant Colony Counts TA98 S9- ([4]; 25 ug/Well): 3.0
Mean Revertant Colony Counts TA98 SP9+ ([4]; 64 ug/Well): 8.7
Mean Revertant Colony Counts TA98 S9- ([4]; 64 ug/Well): 6.0
Mean Revertant Colony Counts TA98 SP9+ ([4]; 160 ug/Well): 6.3
Mean Revertant Colony Counts TA98 S9- ([4]; 160 ug/Well): 3.7
Mean Revertant Colony Counts TA98 SP9+ ([4]; 400 ug/Well): 7.3
Mean Revertant Colony Counts TA98 S9- ([4]; 400 ug/Well): 2.0
Mean Revertant Colony Counts TA98 SP9+ ([4]; 1000 ug/Well): 4.0
Mean Revertant Colony Counts TA98 S9- ([4]; 1000 ug/Well): 3.7
fold increase in the mean number of revertant colonies, TA98 ([4]; any concentration tested, vs negative control): < 2 fold
Mean Revertant Colony Counts TA-100 SP9+ ([5]; 1.5 ug/Well): 17.3
Mean Revertant Colony Counts TA-100 S9- ([5]; 1.5 ug/Well): 35.0
Mean Revertant Colony Counts TA-100 SP9+ ([5]; 4 ug/Well): 21.3
Mean Revertant Colony Counts TA-100 S9- ([5]; 4 ug/Well): 30.0
Mean Revertant Colony Counts TA-100 SP9+ ([5]; 10 ug/Well): 27.0
Mean Revertant Colony Counts TA-100 S9- ([5]; 10 ug/Well): 33.3
Mean Revertant Colony Counts TA-100 SP9+ ([5]; 25 ug/Well): 34.0
Mean Revertant Colony Counts TA-100 S9- ([5]; 25 ug/Well): 24.0
Mean Revertant Colony Counts TA-100 SP9+ ([5]; 64 ug/Well): 31.7
Mean Revertant Colony Counts TA-100 S9- ([5]; 64 ug/Well): 26.3
Mean Revertant Colony Counts TA-100 SP9+ ([5]; 160 ug/Well): 24.3
Mean Revertant Colony Counts TA-100 S9- ([5]; 160 ug/Well): 21.3
Mean Revertant Colony Counts TA-100 SP9+ ([5]; 400 ug/Well): 29.3
Mean Revertant Colony Counts TA-100 S9- ([5]; 400 ug/Well): 8.0
Mean Revertant Colony Counts TA-100 SP9+ ([5]; 1000 ug/Well): 15.7
Mean Revertant Colony Counts TA-100 S9- ([5]; 1000 ug/Well): 2.7
fold increase in the mean number of revertant colonies, TA100 [5]: < 2 fold

CC(C)(C)c1ccc(O)c(C(=O)Nc2cc(C(=O)O)ccc2Cl)c1 [Compound 600494, 3-{[2-Hydroxy-5-(tert-butyl)benzene]amido}-4chloro-benzoic acid]
change in respiration / oxygen consumption rate (OCR) ([1]; compared to DMSO control, 2 hours): no change in respiration
Remaining Percentage of 60 min (%), Mouse, Tested Sample [2]: 109.6%
Remaining Percentage of 60 min (%), Mouse, Negative Control [2]: 68.9%
Remaining Percentage of 60 min (%), Mouse, Heat-inactivated Control [2]: 98.5%
AUC _%Extrap_obs (IV) ([3]; IV 1 mg/kg): 1.23 +/- 1.05%
AUCl ast/D (IV) ([3]; IV 1 mg/kg): 18200 ± 1190 ng·kg·h/mL/mg
V ss_obs ([3]; IV 1 mg/kg): 0.13 ± 0.035 L/kg
AUC _%Extrap_obs (PO) ([3]; PO 5 mg/kg in PBS): 3.64 +/-4.73%
AUC last / D (PO) ([3]; PO 5 mg/kg in PBS): 2490 ± 542 ng·kg·h/mL/mg
T 1/2 (PO) ([3]; PO 5 mg/kg in PBS, 5 mg/kg): 4.6 h and 4.58 ± 2.61 h
F (oral bioavailability) [3]: 14.17 +/- 3.8%
half-life [3, 6]: 5.36 ± 2 h
Cmax ([3]; po, 5 mg/kg, PO 5 mg/kg in PBS): 1850 ± 674 ng/mL
half-life [3, 7]: 5.3 h
bioavailability ([3]; po, 5 mg/kg): 14%
C0 ([3]; IV 1 mg/kg): 22900 ± 4300 ng/mL
AUC(0-inf) [3, 8]: 18400 ± 1400 ng·h/mL
AUC(0-t) [3, 9]: 18200 ± 1190 ng·h/mL
clearance ([3]; IV 1 mg/kg): 0.91 ± 0.068 mL/min/kg
MRT inf [3, 10]: 2.39 ± 0.69 h
Tmax ([3]; PO 5 mg/kg in PBS): 5.33 ± 2.31 h
AUC(0-inf) [3, 11]: 13000 ± 3520 ng·h/mL
AUC(0-t) [3, 12]: 12400 ± 2710 ng·h/mL
MRT inf [3, 13]: 7.89 ± 1.49 h
Mean Revertant Colony Counts TA98 SP9+ ([4]; 1.5 ug/Well): 8.7
Mean Revertant Colony Counts TA98 S9- ([4]; 1.5 ug/Well): 7.3
Mean Revertant Colony Counts TA98 SP9+ ([4]; 4 ug/Well): 9.3
Mean Revertant Colony Counts TA98 S9- ([4]; 4 ug/Well): 7.7
Mean Revertant Colony Counts TA98 SP9+ ([4]; 10 ug/Well): 7.7
Mean Revertant Colony Counts TA98 S9- ([4]; 10 ug/Well): 7.3
Mean Revertant Colony Counts TA98 SP9+ ([4]; 25 ug/Well): 12.0
Mean Revertant Colony Counts TA98 S9- ([4]; 25 ug/Well): 6.7
Mean Revertant Colony Counts TA98 SP9+ ([4]; 64 ug/Well): 8.0
Mean Revertant Colony Counts TA98 S9- ([4]; 64 ug/Well): 6.0
Mean Revertant Colony Counts TA98 SP9+ ([4]; 160 ug/Well): 15.7
Mean Revertant Colony Counts TA98 S9- ([4]; 160 ug/Well): 11.7
Mean Revertant Colony Counts TA98 SP9+ ([4]; 400 ug/Well): 10.3
Mean Revertant Colony Counts TA98 S9- ([4]; 400 ug/Well): 14.0
fold increase in revertant colonies, TA98 ([4]; 400 μg/well in the absence of S9 mix): ≥ 2 fold
Mean Revertant Colony Counts TA98 SP9+ ([4]; 1000 ug/Well): 11.3
Mean Revertant Colony Counts TA98 S9- ([4]; 1000 ug/Well): 10.7
Mean Revertant Colony Counts TA-100 SP9+ ([5]; 1.5 ug/Well): 20.7
Mean Revertant Colony Counts TA-100 S9- ([5]; 1.5 ug/Well): 30.0
Mean Revertant Colony Counts TA-100 SP9+ ([5]; 4 ug/Well): 17.3
Mean Revertant Colony Counts TA-100 S9- ([5]; 4 ug/Well): 27.0
Mean Revertant Colony Counts TA-100 SP9+ ([5]; 10 ug/Well): 18.0
Mean Revertant Colony Counts TA-100 S9- ([5]; 10 ug/Well): 25.0
Mean Revertant Colony Counts TA-100 SP9+ ([5]; 25 ug/Well): 22.0
Mean Revertant Colony Counts TA-100 S9- ([5]; 25 ug/Well): 24.0
Mean Revertant Colony Counts TA-100 SP9+ ([5]; 64 ug/Well): 16.3
Mean Revertant Colony Counts TA-100 S9- ([5]; 64 ug/Well): 33.0
Mean Revertant Colony Counts TA-100 SP9+ ([5]; 160 ug/Well): 21.0
Mean Revertant Colony Counts TA-100 S9- ([5]; 160 ug/Well): 25.7
Mean Revertant Colony Counts TA-100 SP9+ ([5]; 400 ug/Well): 21.3
Mean Revertant Colony Counts TA-100 S9- ([5]; 400 ug/Well): 22.3
Mean Revertant Colony Counts TA-100 SP9+ ([5]; 1000 ug/Well): 20.3
Mean Revertant Colony Counts TA-100 S9- ([5]; 1000 ug/Well): 17.7
fold increase in the mean number of revertant colonies, TA100 [5]: < 2 fold
